Experimental data reported in patent EP0254179A2, “Tetrahydrobenzothiazoloquinolines, their preparation and use” (BOEHRINGER INGELHEIM KG, priority 1986, dated 1988).

Key:
[1] = tested on: präsynaptischer Dopaminrezeptoren; test: Inhibition of exploratory activity (light-beam interruptions by groups of 5 mice); assay type: in vivo, Mäusen; conditions: 10 mg/kg subcutaneous, measured 1 hour after injection over 5 minutes, versus saline controls
Text: (§1) Im Vergleich zu der bekannten racemischen Verbindung 6-Methyl-9-amino-5,6,6a,7-tetrahydro-4H-benzo[de]thiazolo[4,-5-g] chinolin wurden daher beispielsweise die Verbindungen ((-)-Enantiomere) • a= 9-Amino-5,6,6a,7-tetrahydro-4H-benzo[de]thiazolo[4,5-g] chinolin • b= 6-Ethyl-9-amino-5,6,6a,7-tetrahydro-4H-benzo[de]-thiazolo[4,5-g]chinolin. • c= 6-Propyl-9-amino-5,6,6a,7-tetrahydro-4H-benzo[de]-thiazolo[4,5-g]chinolin • d= 6-Methyl-9-benzylamino-5,6,6a,7-tetrahydro-4H-benzo[de]-thiazolo[4,5-g]chinolin • e= 6-Ethyl-9-methylamino-5,6,6a,7-tetrahydro-4H-benzo[de]-thiazolo[4,5-g]chinolin • f= 6-Ethyl-9-dimethylamino-5,6,6a,7-tetrahydro-4H-benzo[de]thiazolo[4,5-g]chinolin. hinsichtlich ihrer Beeinflussung präsynaptischer Dopaminrezeptoren untersucht, wobei zunächst die Wirkung auf die exploratorische Aktivität von Mäusen getestet und anschließend die Beeinflussung der Dopaminutilisation und der Dopaminsynthese an Ratten wie folgt bestimmt wurden:
Die Aktititätsmessung erfolgte in Beobachtungskäfigen, die mit einer Infrarotlichtschranke versehen sind. Gemessen wird die Häufigkeit der Unterbrechung des Lichtstrahles durch eine Gruppe von 5 Mäusen innerhalb von 5 Minuten. Gruppen von jeweils 5 Tieren erhalten die zu untersuchende Substanz in einer Dosis von 10 mg/kg subkutan injiziert. 1 Stunde später werden die Tiere in die Beobachtungskäfige gebracht, wo sofort mit der Messung der exploratorischen Aktivität über 5 Minuten begonnen wird. Parallel bzw. alternierend zu Gruppen, die mit Testsubstanz behandelt wurden, werden kochsalzbehandelte Kontrollgruppen (o,9%ig; 0,1 ml/10 g Körpergewicht subkutan) untersucht.
Alle diejenigen Substanzen wurden in die weitere Versuchsreihe aufgenommen, die als Vorbedingung eine Hemmung der exploratorischen Aktivität gegenüber den Kontrolltieren von >50% aufwiesen, wie es beispielsweise für die oben näher bezeichneten Verbindungen a,b,c,d,e, und f nachzuweisen war.

[2] = tested on: präsynaptischer Dopaminrezeptoren; test: Determination of dopamine utilisation after AMPT treatment (whole-brain dopamine by HPLC with electrochemical detection); assay type: in vivo, Ratten; conditions: rats; 10 mg/kg s.c. at 0 and 2 hours; AMPT 250 mg/kg intraperitoneal; brains taken at 4 hours
Text: as §1
Die Dopaminutilisation wurde an Ratten gemessen. Bei Tieren, die mit α-Methylparatyrosin (AMPT) (250 mg/kg intraperitoneal) behandelt werden, fällt die Dopaminkonzentration im Gesamthirn mit fortschreitender Versuchsdauer ab. Durch Substanzen, die an Autorezeptoren wirken, kann der Dopaminabfall (im Vergleich zu mit Kochsalzlösung behandelten Kontrolltieren) vermindert werden.
Die Testsubstanzen werden zum Zeitpunkt 0 und 2 Stunden des Experiments - soweit nicht anders angegeben - zur Erstellung einer Dosis-Wirkungskurve mit 0,01 bis 10 mg/kg s.c. appliziert. Zum Zeitpunkt 4 Stunden des Experiments werden die Tiere getötet und die Gehirne der Dopaminbestimmung mittels Hochdruckflüssigkeitchromatographie mit elektrochemischer Detektion zugeführt. Bestimmt wird die durch die Testsubstanz bewirkte prozentuelle Steigerung der Dopaminutilisation nach AMPT-Behandlung.

SMILES	Hemmung der exploratorischen Aktivität gegenüber den Kontrolltieren [1] [%]	Prozentuale Steigerung der Dopaminutilisation [2] [%]
CCN1CCc2cccc3c2C1Cc1sc(N)nc1-3 (stereo not drawn) [b, 6-Ethyl-9-amino-5,6,6a,7-tetrahydro-4H-benzo[de]thiazolo[4,5-g]chinolin]	> 50	64
CN1CCc2cccc3c2C1Cc1sc(N)nc1-3 (racemic) [Vergleich, 6-Methyl-9-amino-5,6,6a,7-tetrahydro-4H-benzo[de]thiazolo[4,5-g] chinolin, reference compound]	–	34
CCN1CCc2cccc3c2C1Cc1sc(N(C)C)nc1-3 (stereo not drawn) [f, 6-Ethyl-9-dimethylamino-5,6,6a,7-tetrahydro-4H-benzo[de]thiazolo[4,5-g]chinolin]	> 50	–
CN1CCc2cccc3c2C1Cc1sc(NCc2ccccc2)nc1-3 (stereo not drawn) [d, 6-Methyl-9-benzylamino-5,6,6a,7-tetrahydro-4H-benzo[de]thiazolo[4,5-g]chinolin]	> 50	–
CCN1CCc2cccc3c2C1Cc1sc(NC)nc1-3 (stereo not drawn) [e, 6-Ethyl-9-methylamino-5,6,6a,7-tetrahydro-4H-benzo[de]thiazolo[4,5-g]chinolin]	> 50	–
Nc1nc2c(s1)CC1NCCc3cccc-2c31 (stereo not drawn) [a, 9-Amino-5,6,6a,7-tetrahydro-4H-benzo[de]thiazolo[4,5-g] chinolin]	> 50	–
CCCN1CCc2cccc3c2C1Cc1sc(N)nc1-3 (stereo not drawn) [c, 6-Propyl-9-amino-5,6,6a,7-tetrahydro-4H-benzo[de]thiazolo[4,5-g]chinolin]	> 50	112
